Measured values from PubChem BioAssay AID1259407 (Chemical Carcinogenesis Research Information System (CCRIS), 2018).
The source made the active and inactive calls. The rule behind the calls is not given here.

System: CCRIS mutagenicity, Ames/micronucleus/aberration tests
Test: CCRIS mutagenicity studies
[1] = Test System: AMES SALMONELLA TYPHIMURIUM, Strain/Indicator: TA98, Metabolic Activation: RAT, LIVER, S-9, AROCLOR 1254, Method: STANDARD PLATE
[2] = Test System: AMES SALMONELLA TYPHIMURIUM, Strain/Indicator: TA100, Metabolic Activation: RAT, LIVER, S-9, AROCLOR 1254, Method: STANDARD PLATE
[3] = Test System: AMES SALMONELLA TYPHIMURIUM, Strain/Indicator: TA1538, Metabolic Activation: RAT, LIVER, S-9, AROCLOR 1254, Method: STANDARD PLATE
[4] = Test System: AMES SALMONELLA TYPHIMURIUM, Strain/Indicator: TA98, Metabolic Activation: NONE, Method: PREINCUBATION
[5] = Test System: AMES SALMONELLA TYPHIMURIUM, Strain/Indicator: TA100, Metabolic Activation: NONE, Method: PREINCUBATION
[6] = Test System: AMES SALMONELLA TYPHIMURIUM, Strain/Indicator: TA100, Metabolic Activation: RAT, LIVER, MICROSOMES, Method: PREINCUBATION
[7] = Test System: AMES SALMONELLA TYPHIMURIUM, Strain/Indicator: TA98, Metabolic Activation: RAT LIVER S-9, PHENOBARBITAL AND BETA-NAPHTHOFLAVONE, Method: PREINCUBATION
[8] = Test System: AMES SALMONELLA TYPHIMURIUM, Strain/Indicator: TA100, Metabolic Activation: RAT LIVER S-9, PHENOBARBITAL AND BETA-NAPHTHOFLAVONE, Method: PREINCUBATION
[9] = Test System: AMES SALMONELLA TYPHIMURIUM, Strain/Indicator: TA1535, Metabolic Activation: NONE, Method: PREINCUBATION
[10] = Test System: AMES SALMONELLA TYPHIMURIUM, Strain/Indicator: TA1535, Metabolic Activation: RAT LIVER S-9, PHENOBARBITAL AND BETA-NAPHTHOFLAVONE, Method: PREINCUBATION
[11] = Test System: AMES SALMONELLA TYPHIMURIUM, Strain/Indicator: TA1537, Metabolic Activation: NONE, Method: PREINCUBATION
[12] = Test System: AMES SALMONELLA TYPHIMURIUM, Strain/Indicator: TA1537, Metabolic Activation: RAT LIVER S-9, PHENOBARBITAL AND BETA-NAPHTHOFLAVONE, Method: PREINCUBATION
[13] = Test System: E.COLI, Strain/Indicator: WP2UVRA, Metabolic Activation: NONE, Method: PREINCUBATION
[14] = Test System: E.COLI, Strain/Indicator: WP2UVRA, Metabolic Activation: RAT LIVER S-9, PHENOBARBITAL AND BETA-NAPHTHOFLAVONE, Method: PREINCUBATION

`C=C(C)OC(C)=O` was tested, and the mutagenic call (Test System: AMES SALMONELLA TYPHIMURIUM, Strain/Indicator: TA98, Metabolic Activation: HAMSTER, LIVER, S-9, AROCLOR 1254, Method: STANDARD PLATE) was “inactive; negative”, the mutagenic call (Test System: AMES SALMONELLA TYPHIMURIUM, Strain/Indicator: TA98, Metabolic Activation: NONE, Method: STANDARD PLATE) was “inactive; negative” and the mutagenic call [1] was “inactive; negative”. For the same compound, the mutagenic call (Test System: AMES SALMONELLA TYPHIMURIUM, Strain/Indicator: TA100, Metabolic Activation: HAMSTER, LIVER, S-9, AROCLOR 1254, Method: STANDARD PLATE) was “inactive; negative”, the mutagenic call (Test System: AMES SALMONELLA TYPHIMURIUM, Strain/Indicator: TA100, Metabolic Activation: NONE, Method: STANDARD PLATE) was “inactive; negative” and the mutagenic call [2] was “inactive; negative”. For the same compound, the mutagenic call (Test System: AMES SALMONELLA TYPHIMURIUM, Strain/Indicator: TA1535, Metabolic Activation: HAMSTER, LIVER, S-9, AROCLOR 1254, Method: STANDARD PLATE) was “inactive; negative”, the mutagenic call (Test System: AMES SALMONELLA TYPHIMURIUM, Strain/Indicator: TA1535, Metabolic Activation: NONE, Method: STANDARD PLATE) was “inactive; negative” and the mutagenic call (Test System: AMES SALMONELLA TYPHIMURIUM, Strain/Indicator: TA1535, Metabolic Activation: RAT, LIVER, S-9, AROCLOR 1254, Method: STANDARD PLATE) was “inactive; negative”. For the same compound, the mutagenic call (Test System: AMES SALMONELLA TYPHIMURIUM, Strain/Indicator: TA1537, Metabolic Activation: HAMSTER, LIVER, S-9, AROCLOR 1254, Method: STANDARD PLATE) was “inactive; negative”, the mutagenic call (Test System: AMES SALMONELLA TYPHIMURIUM, Strain/Indicator: TA1537, Metabolic Activation: NONE, Method: STANDARD PLATE) was “inactive; negative” and the mutagenic call (Test System: AMES SALMONELLA TYPHIMURIUM, Strain/Indicator: TA1537, Metabolic Activation: RAT, LIVER, S-9, AROCLOR 1254, Method: STANDARD PLATE) was “inactive; negative”. For the same compound, the mutagenic call (Test System: AMES SALMONELLA TYPHIMURIUM, Strain/Indicator: TA1538, Metabolic Activation: HAMSTER, LIVER, S-9, AROCLOR 1254, Method: STANDARD PLATE) was “inactive; negative”, the mutagenic call (Test System: AMES SALMONELLA TYPHIMURIUM, Strain/Indicator: TA1538, Metabolic Activation: NONE, Method: STANDARD PLATE) was “inactive; negative” and the mutagenic call [3] was “inactive; negative”. The mutagenic call (Test System: Mouse lymphoma, Strain/Indicator: L5178Y (tk+/tk-), Metabolic Activation: None, Method: Suspension/plate) was “active; inconclusive (previously evaluated positive)” and the mutagenic call (Test System: Mouse lymphoma, Strain/Indicator: L5178Y (tk+/tk-), Metabolic Activation: Rat, liver, S-9, Aroclor 1254, Method: Suspension/plate) was “inactive; negative”.
For `CC(=O)Nc1ccc(S(=O)(=O)Nc2ccccn2)cc1`, the mutagenic call [4] was “inactive; negative”, the mutagenic call (Test System: AMES SALMONELLA TYPHIMURIUM, Strain/Indicator: TA98, Metabolic Activation: RAT, LIVER, S-9, AROCLOR 1254, Method: PREINCUBATION) was “inactive; negative” and the mutagenic call [5] was “inactive; negative”. For the same compound, the mutagenic call (Test System: AMES SALMONELLA TYPHIMURIUM, Strain/Indicator: TA100, Metabolic Activation: RAT, LIVER, S-9, AROCLOR 1254, Method: PREINCUBATION) was “inactive; negative”.
With `CC(Br)C(Br)CCl` (centres undefined) the mutagenic call (Test System: AMES SALMONELLA TYPHIMURIUM, Strain/Indicator: TA100, Metabolic Activation: RAT, LIVER, MICROSOMES, PHENOBARBITAL, Method: PREINCUBATION) was “active; positive” and the mutagenic call [6] was “active; positive”.
`c1ccc(N=Nc2ccccc2)cc1` was tested, and the mutagenic call [5] was “inactive; negative”, the mutagenic call (Test System: AMES SALMONELLA TYPHIMURIUM, Strain/Indicator: TA100, Metabolic Activation: RAT, LIVER, MICROSOMES, AROCLOR 1254, Method: PREINCUBATION) was “active; positive” and the mutagenic call (Test System: AMES SALMONELLA TYPHIMURIUM, Strain/Indicator: TA100, Metabolic Activation: RAT, LIVER, MICROSOMES, AZOBENZENE, Method: PREINCUBATION) was “inactive; negative”. The mutagenic call [6] was “inactive; negative”, the mutagenic call [2] was “active; positive” and the mutagenic call (Test System: AMES SALMONELLA TYPHIMURIUM, Strain/Indicator: TA100, Metabolic Activation: RAT, LIVER, S-9, POLYCHLORINATED BIPHENYLS, Method: PREINCUBATION) was “active; positive”.
For `Cc1cc(N)cc([N+](=O)[O-])c1N`, the mutagenic call [1] was “active; positive” and the mutagenic call [3] was “active; positive”.
In the case of `COC(=O)C(C)=Cc1ccc([N+](=O)[O-])o1`, the mutagenic call [4] is reported as “active; positive”.
With `COc1cc(/C=C/c2ccccc2)oc(=O)c1` the mutagenic call (Test System: Mouse lymphoma cells, Strain/Indicator: L5178Y ( tk+/tk-), Metabolic Activation: Human, Liver, S-9, Method: Suspension/plate) was “inactive; negative”.
In the case of `O=S(=O)(O)c1ccc2ccc3cccc4ccc1c2c34`, the mutagenic call [1] is reported as “inactive; negative” and the mutagenic call [2] is reported as “active; positive”.
For `NCCCN1CCN(CCCN)CC1`, the mutagenic call [4] was “inactive; negative”, the mutagenic call [7] was “inactive; negative” and the mutagenic call [5] was “inactive; negative”. For the same compound, the mutagenic call [8] was “inactive; negative”, the mutagenic call (Test System: AMES SALMONELLA TYPHIMURIUM, Strain/Indicator: TA102, Metabolic Activation: NONE, Method: PREINCUBATION) was “inactive; negative” and the mutagenic call (Test System: AMES SALMONELLA TYPHIMURIUM, Strain/Indicator: TA102, Metabolic Activation: RAT LIVER S-9, PHENOBARBITAL AND BETA-NAPHTHOFLAVONE, Method: PREINCUBATION) was “inactive; negative”. The mutagenic call (Test System: AMES SALMONELLA TYPHIMURIUM, Strain/Indicator: TA104, Metabolic Activation: NONE, Method: PREINCUBATION) was “inactive; negative”, the mutagenic call (Test System: AMES SALMONELLA TYPHIMURIUM, Strain/Indicator: TA104, Metabolic Activation: RAT LIVER S-9, PHENOBARBITAL AND BETA-NAPHTHOFLAVONE, Method: PREINCUBATION) was “inactive; negative” and the mutagenic call [9] was “inactive; negative”. For the same compound, the mutagenic call [10] was “inactive; negative”, the mutagenic call [11] was “inactive; negative” and the mutagenic call [12] was “inactive; negative”. For the same compound, the mutagenic call (Test System: E.COLI, Strain/Indicator: WP2UVRA/PKM101, Metabolic Activation: NONE, Method: PREINCUBATION) was “inactive; negative”, the mutagenic call (Test System: E.COLI, Strain/Indicator: WP2UVRA/PKM101, Metabolic Activation: RAT LIVER S-9, PHENOBARBITAL AND BETA-NAPHTHOFLAVONE, Method: PREINCUBATION) was “inactive; negative” and the mutagenic call [13] was “inactive; negative”. For the same compound, the mutagenic call [14] was “inactive; negative”.
In the case of `CC(Br)C(=O)O` (centres undefined), the mutagenic call (End Point: IN VITRO CHROMOSOMAL ABERRATIONS, Test System: CHL CELLS, Metabolic Activation: RAT, LIVER, S-9, SODIUM PHENOBARBITAL AND 5,6-BENZOFLAVONE) is reported as “active; positive (structural changes)”, the mutagenic call [4] is reported as “inactive; negative” and the mutagenic call [7] is reported as “inactive; negative”. The mutagenic call [5] was “inactive; negative”, the mutagenic call [8] was “inactive; negative” and the mutagenic call [9] was “inactive; negative”. The mutagenic call [10] was “active; positive”, the mutagenic call [11] was “inactive; negative” and the mutagenic call [12] was “inactive; negative”. For the same compound, the mutagenic call (Test System: AMES SALMONELLA TYPHIMURIUM, Strain/Indicator: TA1538, Metabolic Activation: NONE, Method: PREINCUBATION) was “inactive; negative”, the mutagenic call (Test System: AMES SALMONELLA TYPHIMURIUM, Strain/Indicator: TA1538, Metabolic Activation: RAT LIVER S-9, PHENOBARBITAL AND BETA-NAPHTHOFLAVONE, Method: PREINCUBATION) was “inactive; negative” and the mutagenic call [13] was “inactive; negative”. The mutagenic call [14] was “inactive; negative”.
